# Data from ChEMBL document CHEMBL3399963, “Design, synthesis and preliminary biological evaluation of C-8 substituted guanine derivatives as small molecular inhibitors of FGFRs” (Bioorg Med Chem Lett, 2015).
# Columns and labels:
# [1] = target: T1, Fibroblast growth factor receptor 4 (Homo sapiens, UniProt P22455); assay: Inhibition of FGFR4 (unknown origin)
# [2] = Cytotoxicity against human HL7702 cells after 72 hrs by MTT assay; details: L02, 72 h
# [3] = target: T1, Fibroblast growth factor receptor 4; assay: Inhibition of FGFR4 (unknown origin) after 90 mins by TR-FRET assay
# A549 = assay: Cytotoxicity against human A549 cells after 72 hrs by MTT assay; details: A549, 72 h
# [4] = Cytotoxicity against human HeLa 229 cells after 72 hrs by MTT assay; details: HeLa 229, 72 h
# [5] = Cytotoxicity against mouse B16F10 cells after 72 hrs by MTT assay; details: B16-F10, 72 h
# [6] = target: Fibroblast growth factor receptor 3 (Homo sapiens, UniProt P22607); assay: Inhibition of FGFR3 (unknown origin) after 90 mins by TR-FRET assay
# Sequence of Fibroblast growth factor receptor 3 (P22607 whole entry): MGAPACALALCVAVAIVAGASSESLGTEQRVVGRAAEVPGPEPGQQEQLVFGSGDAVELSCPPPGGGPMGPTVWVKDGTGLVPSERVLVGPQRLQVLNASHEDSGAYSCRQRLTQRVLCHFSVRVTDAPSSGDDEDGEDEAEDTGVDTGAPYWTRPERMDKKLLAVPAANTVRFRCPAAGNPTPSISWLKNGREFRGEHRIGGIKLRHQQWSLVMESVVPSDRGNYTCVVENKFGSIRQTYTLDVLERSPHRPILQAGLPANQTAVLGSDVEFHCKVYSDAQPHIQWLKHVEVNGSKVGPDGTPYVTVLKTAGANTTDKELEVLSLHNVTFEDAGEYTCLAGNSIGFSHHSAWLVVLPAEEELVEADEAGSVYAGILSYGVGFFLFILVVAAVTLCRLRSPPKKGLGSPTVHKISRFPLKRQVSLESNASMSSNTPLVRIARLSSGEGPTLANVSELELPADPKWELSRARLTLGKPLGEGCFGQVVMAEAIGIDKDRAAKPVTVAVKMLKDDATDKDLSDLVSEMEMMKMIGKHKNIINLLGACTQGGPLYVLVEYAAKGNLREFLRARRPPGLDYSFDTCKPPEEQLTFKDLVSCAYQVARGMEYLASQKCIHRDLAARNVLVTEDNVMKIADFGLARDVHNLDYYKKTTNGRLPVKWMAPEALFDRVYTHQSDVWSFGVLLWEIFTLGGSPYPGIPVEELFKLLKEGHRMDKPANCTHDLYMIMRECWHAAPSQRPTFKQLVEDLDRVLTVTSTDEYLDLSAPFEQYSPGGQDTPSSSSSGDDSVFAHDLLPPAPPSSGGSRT
# [7] = Cytotoxicity against human HL7702 cells assessed as cell survival at 2 to 10 uM after 72 hrs by MTT assay; format: cell-based; details: l02, 72 h
# [8] = target: Fibroblast growth factor receptor 2 (Homo sapiens, UniProt P21802); assay: Inhibition of FGFR2 (unknown origin) after 90 mins by TR-FRET assay
# Sequence of Fibroblast growth factor receptor 2 (P21802 whole entry): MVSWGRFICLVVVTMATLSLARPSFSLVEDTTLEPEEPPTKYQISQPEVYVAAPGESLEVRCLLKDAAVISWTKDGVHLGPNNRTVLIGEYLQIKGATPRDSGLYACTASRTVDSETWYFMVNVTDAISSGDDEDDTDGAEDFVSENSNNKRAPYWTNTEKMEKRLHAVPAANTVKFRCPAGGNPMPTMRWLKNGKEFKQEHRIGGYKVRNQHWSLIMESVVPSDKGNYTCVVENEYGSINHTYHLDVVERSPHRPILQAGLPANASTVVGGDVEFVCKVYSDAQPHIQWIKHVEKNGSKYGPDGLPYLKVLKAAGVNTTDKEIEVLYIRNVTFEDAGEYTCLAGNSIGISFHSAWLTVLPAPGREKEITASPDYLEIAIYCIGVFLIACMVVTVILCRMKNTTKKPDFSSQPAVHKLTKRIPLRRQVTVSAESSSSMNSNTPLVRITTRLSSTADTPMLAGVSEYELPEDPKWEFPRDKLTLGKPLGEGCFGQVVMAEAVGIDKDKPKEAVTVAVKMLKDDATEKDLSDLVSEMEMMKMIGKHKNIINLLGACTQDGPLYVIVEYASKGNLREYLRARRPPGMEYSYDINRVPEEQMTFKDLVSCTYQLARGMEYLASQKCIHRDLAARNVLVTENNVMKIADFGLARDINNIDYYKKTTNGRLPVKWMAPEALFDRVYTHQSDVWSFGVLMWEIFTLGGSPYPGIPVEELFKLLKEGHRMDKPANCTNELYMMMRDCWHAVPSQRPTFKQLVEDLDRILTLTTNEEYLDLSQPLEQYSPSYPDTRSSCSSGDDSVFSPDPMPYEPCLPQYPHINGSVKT
# [9] = target: Fibroblast growth factor receptor 1 (Homo sapiens, UniProt P11362)
# Sequence of Fibroblast growth factor receptor 1 (P11362 whole entry): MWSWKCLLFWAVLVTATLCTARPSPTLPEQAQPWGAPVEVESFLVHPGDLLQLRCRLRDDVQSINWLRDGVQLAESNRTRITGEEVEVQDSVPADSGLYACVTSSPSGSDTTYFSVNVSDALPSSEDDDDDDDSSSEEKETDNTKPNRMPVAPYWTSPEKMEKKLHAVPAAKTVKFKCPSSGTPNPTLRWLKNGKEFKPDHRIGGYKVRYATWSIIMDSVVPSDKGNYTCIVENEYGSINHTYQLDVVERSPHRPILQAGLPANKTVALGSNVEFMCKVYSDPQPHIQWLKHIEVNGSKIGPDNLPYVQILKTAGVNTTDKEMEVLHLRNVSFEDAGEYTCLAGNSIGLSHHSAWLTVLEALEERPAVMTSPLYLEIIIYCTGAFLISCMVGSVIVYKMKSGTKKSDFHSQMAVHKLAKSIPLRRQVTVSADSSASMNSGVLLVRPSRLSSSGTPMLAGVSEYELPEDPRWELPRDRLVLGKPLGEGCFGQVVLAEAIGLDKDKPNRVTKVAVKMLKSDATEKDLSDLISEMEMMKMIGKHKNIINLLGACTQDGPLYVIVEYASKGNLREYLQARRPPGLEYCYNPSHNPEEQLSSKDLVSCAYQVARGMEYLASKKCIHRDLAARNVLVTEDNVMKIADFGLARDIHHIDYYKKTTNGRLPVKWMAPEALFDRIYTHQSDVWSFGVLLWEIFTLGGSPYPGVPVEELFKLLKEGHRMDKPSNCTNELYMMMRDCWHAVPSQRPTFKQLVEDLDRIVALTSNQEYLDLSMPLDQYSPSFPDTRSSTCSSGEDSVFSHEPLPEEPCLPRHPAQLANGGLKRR
# Description: Inhibition of FGFR1 (unknown origin) after 90 mins by TR-FRET assay
# T1 sequence (P22455 whole entry): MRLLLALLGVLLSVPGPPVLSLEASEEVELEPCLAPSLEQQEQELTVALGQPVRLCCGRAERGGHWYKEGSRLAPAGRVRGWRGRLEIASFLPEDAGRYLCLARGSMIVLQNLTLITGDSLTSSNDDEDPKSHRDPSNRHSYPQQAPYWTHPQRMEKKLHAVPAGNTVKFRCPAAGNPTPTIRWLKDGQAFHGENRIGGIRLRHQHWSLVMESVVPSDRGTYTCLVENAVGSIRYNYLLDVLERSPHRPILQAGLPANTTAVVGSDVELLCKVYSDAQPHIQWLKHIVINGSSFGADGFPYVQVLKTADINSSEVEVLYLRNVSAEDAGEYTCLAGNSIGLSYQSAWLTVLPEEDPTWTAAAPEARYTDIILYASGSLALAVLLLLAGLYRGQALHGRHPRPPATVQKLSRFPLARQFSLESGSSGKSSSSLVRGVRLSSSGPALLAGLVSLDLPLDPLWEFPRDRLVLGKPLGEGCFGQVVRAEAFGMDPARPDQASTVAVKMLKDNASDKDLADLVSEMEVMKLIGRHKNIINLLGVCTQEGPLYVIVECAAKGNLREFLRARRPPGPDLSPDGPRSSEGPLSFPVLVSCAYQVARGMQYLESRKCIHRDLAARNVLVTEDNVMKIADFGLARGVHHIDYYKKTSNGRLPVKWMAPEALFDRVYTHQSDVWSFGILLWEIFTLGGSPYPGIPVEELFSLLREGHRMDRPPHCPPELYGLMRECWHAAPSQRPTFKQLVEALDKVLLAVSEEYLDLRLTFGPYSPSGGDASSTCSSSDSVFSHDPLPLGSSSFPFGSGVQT
SMILES,IC50 [1] [µM],IC50 [2] [µM],IC50 [3] [µM],IC50 (A549) [µM],IC50 [4] [µM],IC50 [5] [µM],IC50 [6] [µM],Activity [7],IC50 [8] [µM],IC50 [9] [µM]
CN1CCN(c2ccc(-c3nc4c(N5CCN(CC(=O)Nc6nccs6)CC5)c(Cl)cnc4[nH]3)cc2)CC1,0.02,27.6,0.13,2.59,4.37,1.61,–,–,–,–
Nc1nc(O)c2nc(-c3ccccc3)[nH]c2n1,–,–,> 20,–,–,–,> 20,–,–,–
CC(=O)Nc1nc(O)c2nc(-c3c[nH]c4cccc(Br)c34)[nH]c2n1,–,46.6,> 20,8.28,9.72,6.59,–,Non-toxic,–,–
COc1ccccc1-c1nc2c(O)nc(N)nc2[nH]1,–,–,> 20,–,–,–,> 20,–,–,–
COc1cc(CCc2cc(NC(=O)c3ccc(N4C[C@@H](C)N[C@@H](C)C4)cc3)n[nH]2)cc(OC)c1 [FEXAGRATINIB],–,18.2,–,0.062,0.14,0.051,–,Non-toxic,–,–
Cc1ccc(-c2nc3c(O)nc(N)nc3[nH]2)c(C)c1,–,–,> 20,–,–,–,> 20,–,–,–
CC(C)(C)NC(=O)Nc1nc2nc(N)ncc2cc1-c1c(Cl)cccc1Cl,–,28.4,0.56,4.34,3.87,2.62,0.29,–,0.13,0.11
CC(=O)Nc1nc(O)c2nc(-c3ccccc3)[nH]c2n1,–,–,> 20,–,–,–,> 20,–,–,–
CC(=O)Nc1nc(O)c2nc(-c3ccc(C)cc3C)[nH]c2n1,–,–,> 20,–,–,–,–,–,–,–
Nc1nc(O)c2nc(-c3c[nH]c4ccccc34)[nH]c2n1,–,47,> 20,10.4,15.4,10.3,> 20,–,–,–
COc1cccc(-c2nc3c(O)nc(NC(C)=O)nc3[nH]2)c1OC,–,50,> 20,11.9,10.5,10.8,> 20,–,–,–
CC(=O)Nc1nc(O)c2nc(-c3c[nH]c4ccccc34)[nH]c2n1,–,47.7,> 20,9.39,10.8,8.96,–,–,–,–
COc1ccccc1-c1nc2c(O)nc(NC(C)=O)nc2[nH]1,–,–,> 20,–,–,–,> 20,–,–,–
